The source of these data is US20250268906A1, “MOLECULAR GLUE COMPOUND BASED ON CEREBLON PROTEIN DESIGN AND USE THEREOF” (GLUETACS THERAPEUTICS (SHANGHAI) CO., LTD., priority 2022, published 2025).

One experiment concerns TMD8 cells. As to the kind of experiment: Tumor cell proliferation inhibition, CCK-8 kit, 96 h. The following applies: Homo sapiens, read-out: IC50 for inhibiting the proliferation of tumor cells, TMD8 cell. In kind it is cell-based. The method, then: (§1) The tumor cells used herein were cultured in RPMI 1640 medium supplemented with 10% FBS, penicillin to a final concentration of 100 U/mL, and streptomycin to a final concentration of 100 μg/mL, at 37° C. in an incubator with 5% CO2. Prior to experimentation, all cells used were correctly identified by STR profiling, and tested negative for Mycoplasma through routine screenings.
(§2) After 24 h, 100 μL of the inoculated cells were treated with 0.5 μL of the compounds of the present disclosure (including the compounds in Table 1, and Examples compounds) in DMSO at 10 different successively decreasing concentrations (starting at a maximum concentration of 10 μM; 5-fold serial dilutions). […] The growth inhibition of the compounds of the present disclosure on the cells was plotted using Prism Graphpad software, and the IC50 values of the compounds of the present disclosure were calculated.
In general terms: Formazan colour is commonly taken as a measure of viable cells.

Experiment [1] deals with human Cereblon WT GST-tagged protein (Homo sapiens (Human), UniProt Q96SW2). The experiment is described as follows: CRBN binding, HTRF (CEREBLON BINDING kit). The method, then: The CEREBLON BINDING kits (specification: 10,000 tests; product number: Catalog #64BDCRBNPEH; CISBIO company) was used to determine the CRBN binding ability of the compounds to be tested through a HTRF method (homogeneous time-resolved fluorescence). The specific methods are as follows: • 1. […] Then, 2.5 μL of human Cereblon WT GST-tagged protein solution was added to each well. Finally, 5 μL of the thoroughly mixed Thalidomide-Re reagent and GST Eu antibody working solution were added to each of the aforementioned wells. […] The blank control wells were sequentially added with 2.5 μL of diluent #9 (1×) solution, 2.5 μL of PROTAC binding buffer, and 5 μL of thoroughly mixed Thalidomide-Re reagent and GST Eu antibody working solution. • 4.
The corresponding CRBN binding inhibition rate was calculated using the following method: […]
OD 620 nmcompound is the absorbance value of each well of the compounds of the present disclosure to be tested at an emission wavelength of 620 nm. […] OD 620 nmcontrol is the absorbance value of the blank control well at an emission wavelength of 620 nm. […] OD 620 nmStd0 is the absorbance value of the solvent control well at an emission wavelength of 620 nm.
For orientation: TR-FRET usually uses a lanthanide donor and a delayed reading to cut background.

For a further experiment, the system named is Daudi cells. As to the kind of experiment: Tumor cell proliferation inhibition, CCK-8 kit, 96 h. The following applies: Homo sapiens. In kind it is cell-based. The method, then: as §1, §2
A further experiment has as its system Mino cells. The description is as above. In kind it is cell-based. The following applies: Homo sapiens. How it is done:
as §1, §2

Another experiment has as its system MM.1S cells. Described as above. Type of experiment: cell-based. As to conditions: Homo sapiens, MM1.S. How it is done: as §1, §2
The target in the next experiment is IKZF1 protein (Homo sapiens (Human), UniProt Q13422+Q96SW2). As to the kind of experiment: Western blot, substrate protein degradation in hPBMC. Type of experiment: cell-based. The following applies: 24 h. The source says: (§3) The supernatant, containing the total cellular protein, was aspirated.
A general note: In western blotting, separated proteins are transferred to a membrane and probed.

The target of another experiment is IKZF3 protein (Homo sapiens (Human), UniProt Q96SW2+Q9UKT9). The description is as above. Type of experiment: cell-based. The following applies: 24 h.
Text: as §3

A further experiment has as its target GSPT1 protein (Homo sapiens (Human), UniProt P15170+Q96SW2). As to conditions: hPBMC, 24 h, 50 nM.
Text: as §3

The mark [2] stands for this setting: Daudi cells, CCK-8, read-out: IC50 for inhibiting the proliferation of tumor cells, Daudi cell.
The mark [3] stands for this setting: Mino cells, CCK-8, read-out: IC50 for inhibiting the proliferation of tumor cells, Mino cell.
[4] abbreviates: MM.1S cells, CCK-8, read-out: IC50 for inhibiting the proliferation of tumor cells, MM.1S cell.

Read-outs that look alike come from different tables or passages of the source. A value given as a limit tells only on which side of the number the result lay.

human Cereblon WT GST-tagged protein, sequence (Q96SW2 whole entry): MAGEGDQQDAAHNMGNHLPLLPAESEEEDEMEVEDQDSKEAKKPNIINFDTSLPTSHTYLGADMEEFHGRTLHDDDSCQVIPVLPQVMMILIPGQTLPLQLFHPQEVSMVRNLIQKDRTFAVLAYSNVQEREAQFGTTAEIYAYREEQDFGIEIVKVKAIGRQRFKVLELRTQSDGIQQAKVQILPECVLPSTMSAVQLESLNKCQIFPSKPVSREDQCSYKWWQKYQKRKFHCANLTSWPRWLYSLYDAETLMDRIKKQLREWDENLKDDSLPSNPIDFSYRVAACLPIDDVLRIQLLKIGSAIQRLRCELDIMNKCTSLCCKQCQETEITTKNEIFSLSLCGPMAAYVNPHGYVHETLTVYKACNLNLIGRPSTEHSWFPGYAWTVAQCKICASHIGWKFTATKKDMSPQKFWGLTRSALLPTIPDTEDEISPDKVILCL
IKZF1 protein, sequence (Q13422 whole entry): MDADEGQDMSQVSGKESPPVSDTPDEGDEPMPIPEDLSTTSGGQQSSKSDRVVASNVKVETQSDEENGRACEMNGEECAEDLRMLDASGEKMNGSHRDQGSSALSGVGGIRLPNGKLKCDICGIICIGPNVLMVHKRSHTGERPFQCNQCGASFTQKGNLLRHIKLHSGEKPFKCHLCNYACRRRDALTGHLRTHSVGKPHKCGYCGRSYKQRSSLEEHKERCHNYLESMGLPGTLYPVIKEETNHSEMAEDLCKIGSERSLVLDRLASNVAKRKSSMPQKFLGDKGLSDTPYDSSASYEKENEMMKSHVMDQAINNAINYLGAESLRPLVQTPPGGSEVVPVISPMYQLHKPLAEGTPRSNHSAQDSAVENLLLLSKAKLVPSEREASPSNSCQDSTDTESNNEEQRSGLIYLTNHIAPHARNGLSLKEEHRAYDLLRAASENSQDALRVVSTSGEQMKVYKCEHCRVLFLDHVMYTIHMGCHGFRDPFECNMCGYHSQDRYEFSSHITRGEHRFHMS
IKZF1 protein, sequence (Q96SW2 whole entry): as the sequence (Q96SW2 whole entry) above
IKZF1 protein, sequence (Q16531 whole entry partner): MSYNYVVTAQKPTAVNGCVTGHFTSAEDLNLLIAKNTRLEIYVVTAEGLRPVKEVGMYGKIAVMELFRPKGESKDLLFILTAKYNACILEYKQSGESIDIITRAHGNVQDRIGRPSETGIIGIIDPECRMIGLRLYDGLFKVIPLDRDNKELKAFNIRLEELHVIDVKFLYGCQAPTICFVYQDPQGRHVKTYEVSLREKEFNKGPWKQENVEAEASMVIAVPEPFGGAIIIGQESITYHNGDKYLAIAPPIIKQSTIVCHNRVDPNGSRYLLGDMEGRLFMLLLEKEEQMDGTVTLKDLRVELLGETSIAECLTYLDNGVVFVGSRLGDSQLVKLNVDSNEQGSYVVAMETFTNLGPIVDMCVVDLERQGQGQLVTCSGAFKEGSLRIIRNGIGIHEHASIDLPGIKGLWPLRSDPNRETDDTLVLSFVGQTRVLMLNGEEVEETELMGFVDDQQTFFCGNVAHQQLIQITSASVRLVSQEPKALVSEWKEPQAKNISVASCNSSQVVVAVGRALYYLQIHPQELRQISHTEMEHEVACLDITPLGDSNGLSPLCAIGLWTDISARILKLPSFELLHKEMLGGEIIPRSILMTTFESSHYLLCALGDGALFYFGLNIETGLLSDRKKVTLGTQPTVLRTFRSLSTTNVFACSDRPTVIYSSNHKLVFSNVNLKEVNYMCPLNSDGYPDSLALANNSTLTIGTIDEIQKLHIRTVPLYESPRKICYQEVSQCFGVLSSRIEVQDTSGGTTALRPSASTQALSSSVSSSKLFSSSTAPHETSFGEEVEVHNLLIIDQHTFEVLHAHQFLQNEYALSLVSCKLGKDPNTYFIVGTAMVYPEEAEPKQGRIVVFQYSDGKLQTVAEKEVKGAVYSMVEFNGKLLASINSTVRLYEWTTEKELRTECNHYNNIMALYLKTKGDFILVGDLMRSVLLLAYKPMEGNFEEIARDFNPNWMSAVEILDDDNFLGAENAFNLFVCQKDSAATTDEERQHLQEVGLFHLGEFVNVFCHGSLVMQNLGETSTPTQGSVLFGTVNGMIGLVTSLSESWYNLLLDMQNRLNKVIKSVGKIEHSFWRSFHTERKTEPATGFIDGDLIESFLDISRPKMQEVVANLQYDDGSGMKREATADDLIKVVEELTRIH
IKZF3 protein, sequence (Q9UKT9 whole entry): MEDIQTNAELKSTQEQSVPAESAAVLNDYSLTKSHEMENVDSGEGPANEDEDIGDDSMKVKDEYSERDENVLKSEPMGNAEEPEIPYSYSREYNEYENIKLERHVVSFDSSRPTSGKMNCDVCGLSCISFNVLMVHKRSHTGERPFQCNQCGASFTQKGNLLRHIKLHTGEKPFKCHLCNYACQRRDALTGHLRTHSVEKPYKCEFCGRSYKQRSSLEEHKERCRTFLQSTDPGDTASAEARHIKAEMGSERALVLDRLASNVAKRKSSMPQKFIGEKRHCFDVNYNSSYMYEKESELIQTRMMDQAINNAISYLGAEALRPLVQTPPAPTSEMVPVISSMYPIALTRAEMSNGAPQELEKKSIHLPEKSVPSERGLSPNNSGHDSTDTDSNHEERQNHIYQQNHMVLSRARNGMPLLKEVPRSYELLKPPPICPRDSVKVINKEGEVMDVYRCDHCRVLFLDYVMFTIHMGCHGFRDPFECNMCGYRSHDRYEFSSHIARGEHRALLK
IKZF3 protein, sequence (Q96SW2 whole entry): as the sequence (Q96SW2 whole entry) above
IKZF3 protein, sequence (Q16531 whole entry partner): as the sequence (Q16531 whole entry partner) above
GSPT1 protein, sequence (P15170 whole entry, looked up): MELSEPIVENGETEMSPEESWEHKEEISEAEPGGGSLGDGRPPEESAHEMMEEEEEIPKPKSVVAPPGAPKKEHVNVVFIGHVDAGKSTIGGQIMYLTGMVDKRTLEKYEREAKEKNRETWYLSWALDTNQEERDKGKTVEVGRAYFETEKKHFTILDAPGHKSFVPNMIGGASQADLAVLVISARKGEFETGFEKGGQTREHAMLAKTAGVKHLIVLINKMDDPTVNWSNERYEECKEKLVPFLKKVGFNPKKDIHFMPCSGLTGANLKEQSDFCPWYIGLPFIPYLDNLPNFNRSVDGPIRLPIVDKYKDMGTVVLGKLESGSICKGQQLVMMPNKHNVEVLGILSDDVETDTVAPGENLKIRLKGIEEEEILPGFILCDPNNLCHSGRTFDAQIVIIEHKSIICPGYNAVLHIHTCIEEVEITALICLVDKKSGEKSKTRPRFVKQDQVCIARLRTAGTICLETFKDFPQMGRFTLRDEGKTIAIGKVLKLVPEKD
GSPT1 protein, sequence (Q96SW2 whole entry, looked up): as the sequence (Q96SW2 whole entry) above
GSPT1 protein, sequence (Q16531 whole entry partner, looked up): as the sequence (Q16531 whole entry partner) above

On to `O=C1CCC(N2Cc3c(SCc4ccc(CN5CCC(F)(F)CC5)cc4)cc(F)cc3C2=O)C(=O)N1` (centres unmarked) [GT-04024, 3-(4-((4-((4,4-difluoropiperidin-1-yl)methyl)benzyl)thio)-6-fluoro-1-oxoisoindolin-2-yl)piperidine-2,6-dione], for which the IC50 was 5 to 10 nM with TMD8 cells (TMD8 cells, 96 h, CCK-8) and < 600 nM in experiment [1].

Take `O=C1CCC(N2Cc3c(SCc4ccc(CN5CCCCC5)cc4)cc(F)cc3C2=O)C(=O)N1` (centres unmarked) [GT-04117, 3-(6-fluoro-1-oxo-4-((4-(piperidin-1-ylmethyl)benzyl)thio)isoindolin-2-yl)piperidine-2,6-dione]: the IC50 in the experiment with Daudi cells (setting [2]) was 500 to 1000 nM; with TMD8 cells (TMD8 cells, 96 h, CCK-8), 10 to 50 nM; with Mino cells (setting [3]) it was < 5 nM; in experiment [1], < 600 nM.

Regarding `O=C1CCC(N2Cc3c(SCc4ccc(CNC56CC7CC(CC(C7)C5)C6)cc4)cc(F)cc3C2=O)C(=O)N1` (centres unmarked) [GT-05423, 3-(4-((4-(((adamantan-1-yl)amino)methyl)benzyl)thio)-6-fluoro-1-oxoisoindolin-2-yl)piperidine-2,6-dione], the figures for the IC50 (in the experiment on MM.1S cells (setting [4]); in the experiment on Mino cells (setting [3]); in experiment [1]) were < 5 nM, < 5 nM and < 600 nM, respectively.

With `CC1(C)[C@@H]2CC[C@@]1(C)[C@@H](NCc1ccc(CSc3cc(F)cc4c3CN(C3CCC(=O)NC3=O)C4=O)cc1)C2` (stereo partly drawn) [GT-05424, 3-(6-fluoro-1-oxo-4-((4-((((1R,2S,4R)-1,7,7-trimethylbicyclo[2.2.1]heptan-2-yl)amino)methyl)benzyl)thio)isoindolin-2-yl)piperidine-2,6-dione], the IC50 with MM.1S cells (setting [4]) was 10 to 50 nM; with Daudi cells (setting [2]), 100 to 500 nM; in the experiment with Mino cells (setting [3]), < 5 nM; in experiment [1], < 600 nM.

In the case of `CC1(C)[C@@H]2CC[C@@]1(C)[C@@H](NCCCCCCCSc1cc(F)cc3c1CN(C1CCC(=O)NC1=O)C3=O)C2` (stereo partly drawn) [GT-05425, 3-(6-fluoro-1-oxo-4-((7-(((1R,2S,4R)-1,7,7-trimethylbicyclo[2.2.1]heptan-2-yl)amino)heptyl)thio)isoindolin-2-yl)piperidine-2,6-dione], the IC50 was 50 to 100 nM in the experiment with MM.1S cells (setting [4]), 500 to 1000 nM in the experiment with Daudi cells (setting [2]), < 5 nM in the experiment on Mino cells (setting [3]) and < 600 nM in experiment [1].

Take `O=C1CCC(N2Cc3c(SCc4ccc(CCNC56CC7CC(CC(C7)C5)C6)cc4)cc(F)cc3C2=O)C(=O)N1` (centres unmarked) [GT-05431, 3-(4-((4-(2-((adamantan-1-yl)amino)ethyl)benzyl)thio)-6-fluoro-1-oxoisoindolin-2-yl)piperidine-2,6-dione]: the IC50 is < 5 nM in the experiment with MM.1S cells (setting [4]), < 5 nM with Daudi cells (setting [2]), < 5 nM in the experiment on Mino cells (setting [3]) and < 600 nM in experiment [1].

Take `O=C1CCC(N2Cc3c(SCc4ccc(CN5CCCCC5)c(F)c4)cc(F)cc3C2=O)C(=O)N1` (centres unmarked) [GT-05443, 3-(6-fluoro-4-((3-fluoro-4-(piperidin-1-ylmethyl)benzyl)thio)-1-oxoisoindolin-2-yl)piperidine-2,6-dione]: the IC50 in the experiment on MM.1S cells (setting [4]) was 10 to 50 nM; in the experiment with Daudi cells (setting [2]), 100 to 500 nM; in the experiment with Mino cells (setting [3]), < 5 nM; in experiment [1], < 600 nM. At IKZF1 protein (Western blot), the “concentration at which IKZF1 protein is significantly degraded” value is “below 0.1 nM”. Besides, the “concentration at which IKZF3 protein is significantly degraded” value on IKZF3 protein (Western blot) is “below 10 nM”.

Turning to `O=C1CCC(N2Cc3c(SCc4ccc(CN5CCC(F)(F)CC5)c(F)c4)cc(F)cc3C2=O)C(=O)N1` (centres unmarked) [GT-05444, 3-(4-((4-((4,4-difluoropiperidin-1-yl)methyl)-3-fluorobenzyl)thio)-6-fluoro-1-oxoisoindolin-2-yl)piperidine-2,6-dione], the IC50 with MM.1S cells (setting [4]) was < 5 nM; in the experiment with Daudi cells (setting [2]) it was 10 to 50 nM; with Mino cells (setting [3]), < 5 nM; in experiment [1], < 600 nM.

With `Nc1cccc2c1C(=O)N(C1CCC(=O)NC1=O)C2=O` (centres unmarked) [pomalidomide, reference compound], the IC50 in the experiment with MM.1S cells (read-out: IC50 for inhibiting the proliferation of tumor cells, MM.1S cell) is 100 to 500 nM; in the experiment with Daudi cells (Daudi, read-out: IC50 for inhibiting the proliferation of tumor cells, Daudi cell) it was 1000 to 5000 nM; with TMD8 cells (TMD8, 96 h), 100 to 500 nM; in the experiment on Mino cells (MINO, read-out: IC50 for inhibiting the proliferation of tumor cells, Mino cell), 100 to 500 nM. Also, the “degradation of IKZF1 protein” value at IKZF1 protein (50 nM) is listed as “does not degrade”. Also, the “degradation of IKZF3 protein” value at IKZF3 protein (50 nM) is reported as “does not degrade”. The “degradation of GSPT1 protein” value at GSPT1 protein is listed as “does not degrade”.
